± gives the expanded uncertainty stated by the source.
Assay: xn = mol fraction of the nth substance listed
Settings: 101 kPa, Liquid, Vibrating tube method

CC(=O)N1CCOCC1 [4-acetylmorpholine] + CCc1ccccc1
mass density [kg/m3]
Settings	293.15 K	303.15 K	313.15 K	323.15 K	333.15 K	343.15 K
x2 = 0.0456	1102.4 ± 6.1	1094.5 ± 6.1	1085.9 ± 6.1	1077.3 ± 6.1	1068.9 ± 6.1	1060.3 ± 6.1
x2 = 0.1256	1082.6 ± 6	1074.7 ± 6	1066.2 ± 6	1057.7 ± 6	1049.2 ± 6	1040.6 ± 6
x2 = 0.1853	1068 ± 6	1060 ± 6	1051.5 ± 6	1042.9 ± 6	1034.3 ± 6	1025.7 ± 6
x2 = 0.2457	1053.2 ± 6	1045.2 ± 6	1036.6 ± 6	1027.9 ± 6	1019.4 ± 6	1010.6 ± 6
x2 = 0.2984	1040.5 ± 6	1032.4 ± 6	1023.7 ± 6	1015 ± 6	1006.3 ± 6	997.5 ± 6
x2 = 0.3486	1028.3 ± 6	1020.1 ± 6	1011.4 ± 6	1002.6 ± 6	993.8 ± 6	985 ± 6
x2 = 0.3899	1018.3 ± 6	1010 ± 6	1001.2 ± 6	992.4 ± 6	983.6 ± 6	974.7 ± 6
x2 = 0.4452	1004.8 ± 6	996.5 ± 6	987.7 ± 6	978.9 ± 6	969.9 ± 6	960.9 ± 6
x2 = 0.4843	995.3 ± 6	986.9 ± 6	978 ± 6	969.2 ± 6	960.2 ± 6	951.2 ± 6
x2 = 0.5433	980.8 ± 6	972.3 ± 6	963.5 ± 6	954.6 ± 6	945.6 ± 6	936.6 ± 6
x2 = 0.5894	969.5 ± 6	961 ± 6	952.1 ± 6	943.2 ± 6	934.2 ± 6	925.2 ± 6
x2 = 0.6555	953.2 ± 6	944.7 ± 6	935.8 ± 6	926.9 ± 6	917.8 ± 6	908.8 ± 6
x2 = 0.6983	942.6 ± 6	934 ± 6	925.1 ± 6	916.2 ± 6	907.2 ± 6	898.3 ± 6
x2 = 0.7452	931 ± 6	922.4 ± 6	913.5 ± 6	904.6 ± 6	895.6 ± 6	886.6 ± 6
x2 = 0.7984	917.7 ± 6	909 ± 6	900.2 ± 6	891.2 ± 6	882.3 ± 6	873.4 ± 6
x2 = 0.8422	906.7 ± 6	898 ± 6	889.3 ± 6	880.4 ± 6	871.4 ± 6	862.4 ± 6
x2 = 0.9328	884.2 ± 6	875.5 ± 6	866.7 ± 6	857.8 ± 6	848.7 ± 6	839.7 ± 6
x2 = 0.9784	872.8 ± 6	864.1 ± 6	855.2 ± 6	846.2 ± 6	837.1 ± 6	828 ± 6

CC(=O)N1CCOCC1 [4-acetylmorpholine] + Cc1cc(C)cc(C)c1
mass density [kg/m3]
Settings	293.15 K	303.15 K	313.15 K	323.15 K	333.15 K	343.15 K
x2 = 0.0654	1094.6 ± 6.1	1086.8 ± 6.1	1077.7 ± 6.1	1069.3 ± 6.1	1060.8 ± 6.1	1052.2 ± 6
x2 = 0.1128	1081.2 ± 6	1073.4 ± 6	1063.8 ± 6	1055.4 ± 6	1046.9 ± 6	1038.5 ± 6
x2 = 0.1763	1063.5 ± 6	1055.7 ± 6	1045.7 ± 6	1037.3 ± 6	1028.9 ± 6	1020.4 ± 6
x2 = 0.2254	1050.2 ± 6	1042.3 ± 6	1032 ± 6	1023.5 ± 6	1015.1 ± 6	1006.7 ± 6
x2 = 0.2845	1034.5 ± 6	1026.5 ± 6	1015.8 ± 6	1007.4 ± 6	999 ± 6	990.6 ± 6
x2 = 0.3241	1024.2 ± 6	1016.2 ± 6	1005.2 ± 6	996.8 ± 6	988.4 ± 6	980 ± 6
x2 = 0.3837	1008.9 ± 6	1000.9 ± 6	989.5 ± 6	981 ± 6	972.7 ± 6	964.3 ± 6
x2 = 0.4266	998.1 ± 6	990.1 ± 6	978.3 ± 6	969.9 ± 6	961.6 ± 6	953.2 ± 6
x2 = 0.4978	980.4 ± 6	972.3 ± 6	960.2 ± 6	951.9 ± 6	943.5 ± 6	935.2 ± 6
x2 = 0.5436	969.2 ± 6	961.1 ± 6	948.8 ± 6	940.4 ± 6	932.1 ± 6	923.8 ± 6
x2 = 0.6116	952.8 ± 6	944.8 ± 6	932.1 ± 6	923.9 ± 6	915.6 ± 6	907.3 ± 6
x2 = 0.6984	932.5 ± 6	924.4 ± 6	911.4 ± 6	903.1 ± 6	894.9 ± 6	886.8 ± 6
x2 = 0.7452	921.6 ± 6	913.6 ± 6	900.4 ± 6	892.2 ± 6	884 ± 6	875.9 ± 6
x2 = 0.7944	910.4 ± 6	902.3 ± 6	888.9 ± 6	880.8 ± 6	872.7 ± 6	864.6 ± 6
x2 = 0.8541	897 ± 6	889 ± 6	875.4 ± 6	867.2 ± 6	859.1 ± 6	851 ± 6
x2 = 0.8932	888.3 ± 6	880.2 ± 6	866.5 ± 6	858.4 ± 6	850.3 ± 6	842.2 ± 6
x2 = 0.9423	877.5 ± 6	869.5 ± 6	855.6 ± 6	847.5 ± 6	839.4 ± 6	831.3 ± 6
x2 = 0.9833	868.7 ± 6	860.6 ± 6	846.5 ± 6	838.5 ± 6	830.4 ± 6	822.3 ± 6

CC(=O)N1CCOCC1 [4-acetylmorpholine] + Cc1ccccc1
mass density [kg/m3]
Settings	293.15 K	303.15 K	313.15 K	323.15 K	333.15 K	343.15 K
x2 = 0.0498	1104.1 ± 6.1	1096.4 ± 6.1	1087.8 ± 6.1	1079.4 ± 6.1	1071.2 ± 6.1	1063.2 ± 6.1
x2 = 0.0975	1094.3 ± 6.1	1086.5 ± 6.1	1077.8 ± 6	1069.6 ± 6	1061.4 ± 6	1053.3 ± 6
x2 = 0.1453	1084 ± 6	1076.5 ± 6	1068.2 ± 6	1059.9 ± 6	1051.6 ± 6	1043.4 ± 6
x2 = 0.2109	1070.1 ± 6	1062.5 ± 6	1054 ± 6	1045.6 ± 6	1036.8 ± 6	1029.2 ± 6
x2 = 0.2873	1053.3 ± 6	1045.4 ± 6	1037.1 ± 6	1028.6 ± 6	1020.2 ± 6	1012 ± 6
x2 = 0.3276	1044.3 ± 6	1036.5 ± 6	1028.1 ± 6	1019.5 ± 6	1011 ± 6	1002.5 ± 6
x2 = 0.3865	1030.8 ± 6	1022.8 ± 6	1014.6 ± 6	1005.8 ± 6	997.2 ± 6	988.6 ± 6
x2 = 0.4536	1015.1 ± 6	1007 ± 6	998.7 ± 6	989.8 ± 6	981.2 ± 6	972.2 ± 6
x2 = 0.4953	1005.1 ± 6	996.9 ± 6	988.7 ± 6	979.7 ± 6	970.8 ± 6	962.1 ± 6
x2 = 0.5235	998.4 ± 6	990 ± 6	981.7 ± 6	972.7 ± 6	964.1 ± 6	954.5 ± 6
x2 = 0.5641	988.2 ± 6	979.8 ± 6	971.6 ± 6	962.5 ± 6	953.8 ± 6	944.9 ± 6
x2 = 0.6033	978.3 ± 6	969.9 ± 6	961.7 ± 6	952.5 ± 6	943.8 ± 6	935 ± 6
x2 = 0.6844	957.3 ± 6	949 ± 6	940.7 ± 6	931.5 ± 6	922.7 ± 6	913.9 ± 6
x2 = 0.7562	937.8 ± 6	929.6 ± 6	921.3 ± 6	912.1 ± 6	903.2 ± 6	894.7 ± 6
x2 = 0.8126	922.2 ± 6	913.7 ± 6	905.5 ± 6	896.2 ± 6	887.4 ± 6	879.3 ± 6
x2 = 0.8843	901.8 ± 6	893.2 ± 6	885 ± 6	875.6 ± 6	866.8 ± 6	857.9 ± 6
x2 = 0.9225	890.5 ± 6	881.8 ± 6	873.5 ± 6	864.1 ± 6	855.3 ± 6	846.4 ± 6
x2 = 0.9832	872.3 ± 6	863.3 ± 6	855.2 ± 6	845.9 ± 6	837.1 ± 6	828.2 ± 6

CC(=O)N1CCOCC1 [4-acetylmorpholine] + c1ccccc1
mass density [kg/m3]
Settings	293.15 K	303.15 K	313.15 K	323.15 K	333.15 K	343.15 K
x2 = 0.0546	1104.6 ± 6.1	1096.7 ± 6.1	1088.2 ± 6.1	1079.6 ± 6.1	1071 ± 6.1	1062.4 ± 6.1
x2 = 0.1127	1094.9 ± 6.1	1086.8 ± 6.1	1078.1 ± 6	1069.3 ± 6	1060.6 ± 6	1051.8 ± 6
x2 = 0.1568	1087.2 ± 6	1079 ± 6	1070.2 ± 6	1061.2 ± 6	1052.4 ± 6	1043.5 ± 6
x2 = 0.2099	1078 ± 6	1069.6 ± 6	1060.6 ± 6	1051.3 ± 6	1042.3 ± 6	1033.2 ± 6
x2 = 0.2673	1067.5 ± 6	1058.9 ± 6	1049.8 ± 6	1040.5 ± 6	1031.4 ± 6	1022.1 ± 6
x2 = 0.3128	1059 ± 6	1050.2 ± 6	1040.9 ± 6	1031.6 ± 6	1022.2 ± 6	1012.9 ± 6
x2 = 0.3564	1050.6 ± 6	1041.7 ± 6	1032.3 ± 6	1022.8 ± 6	1013.4 ± 6	1003.9 ± 6
x2 = 0.4056	1040.8 ± 6	1031.7 ± 6	1022.2 ± 6	1012.5 ± 6	1002.9 ± 6	993.3 ± 6
x2 = 0.4562	1030.1 ± 6	1020.8 ± 6	1011.2 ± 6	1001.4 ± 6	991.7 ± 6	981.8 ± 6
x2 = 0.5039	1019.5 ± 6	1010.1 ± 6	1000.3 ± 6	990.4 ± 6	980.6 ± 6	970.6 ± 6
x2 = 0.5683	1004.5 ± 6	994.9 ± 6	984.9 ± 6	974.9 ± 6	964.9 ± 6	954.8 ± 6
x2 = 0.6138	993.3 ± 6	983.5 ± 6	973.5 ± 6	963.4 ± 6	953.2 ± 6	942.6 ± 6
x2 = 0.6866	974.4 ± 6	964.5 ± 6	954.3 ± 6	943.9 ± 6	933.6 ± 6	923.3 ± 6
x2 = 0.7437	958.7 ± 6	948.6 ± 6	938.3 ± 6	927.7 ± 6	917.6 ± 6	907.1 ± 6
x2 = 0.8033	941.3 ± 6	931.1 ± 6	920.7 ± 6	910.2 ± 6	899.7 ± 6	889.2 ± 6
x2 = 0.8659	922.4 ± 6	912.1 ± 6	901.6 ± 6	891 ± 6	880.5 ± 6	869.8 ± 6
x2 = 0.9154	906.8 ± 6	896.3 ± 6	885.8 ± 6	875.2 ± 6	864.6 ± 6	853.8 ± 6
x2 = 0.9687	889.4 ± 6	878.9 ± 6	868.4 ± 6	857.7 ± 6	847 ± 6	836.3 ± 6

From the NIST ThermoML archive (doi:10.1016/j.jct.2008.07.009)
